Measurements: ChEMBL document CHEMBL1201862, “PubChem BioAssay data set” (2004)
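In this assay, cells in 96-well plates receive the compound at five concentrations for 48 hours. Endpoints are linearly interpolated between the surrounding concentrations. GI50: concentration for 50% inhibition of growth.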 The source made the active and inactive calls. Rule as the data show it: active = GI50 up to about 1.1 µM and inactive = higher.

Key:
Assay in all cases: NCI anticancer screen, dose series, 48 h
786-0 = test system: 786-0
A498 = test system: A498
A549 = test system: A549
ACHN = test system: ACHN
BT-549 = test system: BT-549
CAKI-1 = test system: CAKI-1
CCRF-CEM = test system: CCRF-CEM
COLO 205 = test system: COLO 205
EKVX = test system: EKVX
HCC 2998 = test system: HCC 2998
HCT-116 = test system: HCT-116
HCT-15 = test system: HCT-15
HOP-62 = test system: HOP-62
HOP-92 = test system: HOP-92
HT-29 = test system: HT-29
Hs-578T = test system: Hs-578T
IGROV-1 = test system: IGROV-1
K562 = test system: K562
KM12 = test system: KM12
LOX IMVI = test system: LOX IMVI
M14 = test system: M14
MCF7 = test system: MCF7
MDA-MB-231 = test system: MDA-MB-231
MDA-MB-435 = test system: MDA-MB-435
MDA-N = test system: MDA-N
MOLT-4 = test system: MOLT-4
Malme-3M = test system: Malme-3M
NCI-H226 = test system: NCI-H226
NCI-H23 = test system: NCI-H23
NCI-H460 = test system: NCI-H460
NCI-H522 = test system: NCI-H522
NCI/ADR-RES = test system: NCI/ADR-RES
OVCAR-3 = test system: OVCAR-3
OVCAR-4 = test system: OVCAR-4
OVCAR-5 = test system: OVCAR-5
OVCAR-8 = test system: OVCAR-8
PC-3 = test system: PC-3
RPMI-8226 = test system: RPMI-8226
RXF 393 = test system: RXF 393
SF-268 = test system: SF-268
SF-295 = test system: SF-295
SF-539 = test system: SF-539
SK-MEL-2 = test system: SK-MEL-2
SK-MEL-5 = test system: SK-MEL-5
SK-OV-3 = test system: SK-OV-3
SN12C = test system: SN12C
SNB-19 = test system: SNB-19
SR = test system: SR
SW-620 = test system: SW-620
T47D = test system: T47D
TK-10 = test system: TK-10
U-251 = test system: U-251
UACC-257 = test system: UACC-257
UACC-62 = test system: UACC-62
UO-31 = test system: UO-31
HL-60 = test system: HL-60
SK-MEL-28 = test system: SK-MEL-28
SNB-75 = test system: SNB-75
DU-145 = test system: DU-145

Measured: GI50

CCc1n[nH]c(=O)n1NC(=O)CCCC(=O)O
inactive: 786-0 > 100 µM | A498 > 100 µM | A549 > 100 µM | ACHN > 100 µM | BT-549 > 100 µM | CAKI-1 > 100 µM | CCRF-CEM > 100 µM | COLO 205 > 100 µM | EKVX > 100 µM | HCC 2998 > 100 µM | HCT-116 > 100 µM | HOP-62 > 100 µM | HOP-92 > 100 µM | HT-29 > 100 µM | Hs-578T > 100 µM | IGROV-1 > 100 µM | K562 > 100 µM | KM12 > 100 µM | LOX IMVI > 100 µM | M14 > 100 µM | MCF7 > 100 µM | MDA-MB-231 > 100 µM | MDA-MB-435 > 100 µM | MDA-N > 100 µM | MOLT-4 > 100 µM | Malme-3M > 100 µM | NCI-H226 > 100 µM | NCI-H23 > 100 µM | NCI-H460 > 100 µM | NCI-H522 > 100 µM | NCI/ADR-RES > 100 µM | OVCAR-3 > 100 µM | OVCAR-4 > 100 µM | OVCAR-5 > 100 µM | OVCAR-8 > 100 µM | PC-3 > 100 µM | RPMI-8226 > 100 µM | RXF 393 > 100 µM | SF-268 > 100 µM | SF-295 > 100 µM | SF-539 > 100 µM | SK-MEL-2 > 100 µM | SK-MEL-5 > 100 µM | SK-OV-3 > 100 µM | SN12C > 100 µM | SNB-19 > 100 µM | SR > 100 µM | SW-620 > 100 µM | T47D > 100 µM | TK-10 > 100 µM | U-251 > 100 µM | UACC-257 > 100 µM | UACC-62 > 100 µM | UO-31 > 100 µM
> 100 µM: HCT-15

COC(=O)C(=O)C(C(=O)C(=O)Nc1nc2ccc(C)cc2s1)c1nc2ccc([N+](=O)[O-])cc2nc1O (stereo unspecified)
> 100 µM: HCT-15
inactive: 786-0 > 100 µM | A498 > 100 µM | A549 > 100 µM | ACHN > 100 µM | BT-549 > 100 µM | CAKI-1 > 100 µM | CCRF-CEM > 100 µM | EKVX 68.4 µM | HCC 2998 > 100 µM | HCT-116 > 100 µM | HL-60 > 100 µM | HOP-62 > 100 µM | HOP-92 65.2 µM | HT-29 > 100 µM | Hs-578T 93.1 µM | IGROV-1 47.9 µM | K562 > 100 µM | KM12 > 100 µM | LOX IMVI > 100 µM | M14 > 100 µM | MCF7 > 100 µM | MDA-MB-231 > 100 µM | MDA-MB-435 > 100 µM | MDA-N > 100 µM | Malme-3M > 100 µM | NCI-H226 > 100 µM | NCI-H23 > 100 µM | NCI-H460 > 100 µM | NCI-H522 > 100 µM | NCI/ADR-RES > 100 µM | OVCAR-3 > 100 µM | OVCAR-4 > 10 µM | OVCAR-5 > 100 µM | OVCAR-8 > 100 µM | PC-3 > 100 µM | RPMI-8226 > 100 µM | RXF 393 > 100 µM | SF-268 > 100 µM | SF-295 > 100 µM | SF-539 > 100 µM | SK-MEL-28 > 100 µM | SK-MEL-2 > 100 µM | SK-MEL-5 > 100 µM | SK-OV-3 > 100 µM | SN12C > 100 µM | SNB-19 72.6 µM | SNB-75 > 100 µM | SR > 100 µM | SW-620 > 100 µM | T47D > 100 µM | TK-10 > 100 µM | U-251 > 100 µM | UACC-257 > 100 µM | UACC-62 > 100 µM | UO-31 58.5 µM

O=C(O)Cc1ccc(Oc2nc3ccccc3nc2C(=O)O)cc1
> 100 µM: HCT-15
inactive: 786-0 > 100 µM | A498 > 100 µM | A549 > 100 µM | ACHN > 100 µM | BT-549 > 100 µM | CAKI-1 96.8 µM | CCRF-CEM > 100 µM | COLO 205 > 100 µM | DU-145 > 100 µM | EKVX > 100 µM | HCC 2998 > 100 µM | HCT-116 > 100 µM | HOP-62 > 100 µM | HOP-92 79.1 µM | HT-29 > 100 µM | Hs-578T > 100 µM | IGROV-1 > 100 µM | KM12 > 100 µM | LOX IMVI > 100 µM | M14 > 100 µM | MCF7 > 100 µM | MDA-MB-231 > 100 µM | MDA-MB-435 12.8 µM | NCI-H226 > 100 µM | NCI-H23 > 100 µM | NCI-H460 > 100 µM | NCI-H522 > 100 µM | NCI/ADR-RES > 100 µM | OVCAR-3 > 100 µM | OVCAR-4 > 100 µM | OVCAR-5 > 100 µM | OVCAR-8 > 100 µM | PC-3 > 100 µM | RPMI-8226 > 100 µM | SF-268 > 100 µM | SF-295 > 100 µM | SF-539 > 100 µM | SK-MEL-28 > 100 µM | SK-MEL-2 > 100 µM | SK-MEL-5 > 100 µM | SK-OV-3 > 100 µM | SN12C > 100 µM | SNB-19 > 100 µM | SNB-75 > 100 µM | SW-620 > 100 µM | T47D > 100 µM | TK-10 > 100 µM | U-251 > 100 µM | UACC-257 > 100 µM | UACC-62 > 100 µM | UO-31 > 100 µM
active: HL-60 0.0305 µM | K562 0.0849 µM | SR 0.0187 µM
